Assay results taken from the NIST ThermoML archive (doi:10.1016/j.jct.2016.10.009).

Assay: xn = mol fraction of the nth substance listed
Details: 293.15 K, Liquid, Vibrating tube method

CC(C)OC(C)C [diisopropyl ether] + CCC(C)O
mass density [kg/m3]
Details	x2 = 0	x2 = 0.2036	x2 = 0.3227	x2 = 0.4464	x2 = 0.4973	x2 = 0.6595	x2 = 0.8482
100 kPa	723.5	737.9	746.6	756.1	–	774.1	791.8
1000 kPa	724.6	739	747.6	757	761.1	774.9	792.6
5000 kPa	729.4	743.4	751.8	761.1	765	778.5	795.9
10000 kPa	734.9	748.6	756.8	765.7	769.6	782.9	799.8
15000 kPa	740	753.3	761.4	770.2	774	786.9	803.5
20000 kPa	744.8	757.9	765.7	774.3	778.1	790.8	807.1
25000 kPa	749.4	762.2	769.9	778.3	782	794.5	810.4
30000 kPa	753.7	766.2	773.8	782.2	785.7	798	813.7
35000 kPa	757.7	770.1	777.6	785.7	789.3	801.3	816.8
40000 kPa	761.6	773.8	781.1	789.2	792.7	804.5	819.8
45000 kPa	765.3	777.3	784.6	792.5	796	807.7	822.7
50000 kPa	768.9	780.7	787.9	795.7	799.1	810.7	825.5
55000 kPa	772.4	784	791.1	798.8	802.2	813.6	828.3
60000 kPa	775.7	787.1	794.2	801.8	805.2	816.4	830.9
65000 kPa	778.9	790.3	797.2	804.8	808.1	819.2	833.5
70000 kPa	782	793.2	800.1	807.5	810.8	821.8	836
80000 kPa	787.9	798.9	805.6	812.9	816.2	826.9	840.8
90000 kPa	793.5	804.4	810.9	818.1	821.3	831.9	845.5
100000 kPa	798.8	809.3	815.9	822.9	826	836.4	849.8
110000 kPa	803.9	814.2	820.7	827.6	830.7	840.9	–
